The values that follow come from US20240246946A1, “MODULATORS OF TREX1” (Constellation Pharmaceuticals, Inc., priority 2021, published 2024).

The target in assay [1] is T1, hTREX1 (Homo sapiens, UniProt Q9NSU2).
T1 construct: host or cells: HCT116 dual cells
T1 sequence (Q9NSU2 1-314): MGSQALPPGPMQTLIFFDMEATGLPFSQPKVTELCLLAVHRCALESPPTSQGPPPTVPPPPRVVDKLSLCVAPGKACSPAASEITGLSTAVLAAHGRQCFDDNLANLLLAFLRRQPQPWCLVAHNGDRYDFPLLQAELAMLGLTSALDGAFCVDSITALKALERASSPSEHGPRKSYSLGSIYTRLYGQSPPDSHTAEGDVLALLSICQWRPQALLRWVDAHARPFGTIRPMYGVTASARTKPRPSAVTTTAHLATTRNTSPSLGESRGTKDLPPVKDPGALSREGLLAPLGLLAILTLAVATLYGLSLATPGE
The assay can be described thus: hTREX1 HCT116 Cell Assay (HCT116 dual cells, Lucia luciferase reporter of Type I interferon induction). The assay is classed as cell-based. The following applies: TREX1i 4 h before pBR322/BstNI transfection, read after 48 h. The gist of the method: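 HCT116 dual cells carrying an ISRE-type STAT1/STAT2-driven secreted Lucia luciferase reporter were pretreated with TREX1 inhibitor for 4 h (≤0.1% DMSO), then transfected with pBR322/BstNI DNA (100 ng/well, Lipofectamine LTX). Luciferase in medium read after 48 h at 37 °C.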
(In a reporter assay the amount or activity of a reporter protein is the signal.)

Assay [2] concerns the target T2, full length human TREX1 (Homo sapiens, UniProt Q9NSU2).
T2 construct: N-terminally His-Tev tagged full length human TREX1; made in house; host or cells: E. coli
T2 sequence (Q9NSU2 1-314): T1 sequence (Q9NSU2 1-314)
The assay can be described thus: hTREX1 Biochemical Assay (fluorescence, dsDNA substrate degradation). The following applies: biochemical, read-out: hTREX1 IC50. The gist of the method:
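Cleavage of 60 nM TEX615/quencher-labelled dsDNA in pH 7.4 Tris buffer with 5 mM MgCl2, 1.0% DMSO, run 18 hours at 25° C, EDTA-quenched; fluorescence read-out.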

For assay [3], the target named is T3, human TREX2 (residues M44-A279) (Homo sapiens, UniProt Q9BQ50).
T3 construct: human TREX2 (residues M44-A279, expressed in E. coli); made in house; host or cells: E. coli
T3 sequence (Q9BQ50 44-279 isoform Q9BQ50-1): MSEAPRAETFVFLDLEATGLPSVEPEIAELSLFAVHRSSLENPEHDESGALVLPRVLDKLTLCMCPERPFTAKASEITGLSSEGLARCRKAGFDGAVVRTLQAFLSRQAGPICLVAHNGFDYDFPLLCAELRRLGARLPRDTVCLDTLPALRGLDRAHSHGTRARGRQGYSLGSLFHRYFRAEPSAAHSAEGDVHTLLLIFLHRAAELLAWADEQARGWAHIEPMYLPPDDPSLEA
Briefly: hTREX2 Biochemical Assay (fluorescence, dsDNA substrate degradation). The following applies: biochemical selectivity for hTREX1 vs hTREX2. In a few lines:
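N-His-Tev E. coli enzyme (50 pM) pre-incubated with compound 4 h at 25 °C, then 60 nM TEX615/quencher dsDNA added; 18 h at 25 °C, pH 7.4 Tris buffer with 5 mM MgCl2, 1.0% DMSO. EDTA-quenched; fluorescence 570 ex/615 em from liberated fluorophore, 10-point dose-response.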

In assay [4] the target is T4, full length mouse TREX1 (Mus musculus, UniProt Q91XB0).
T4 construct: N-terminally His-Tev tagged full length mouse TREX1; made in house; host or cells: E. coli
T4 sequence (Q91XB0 1-314): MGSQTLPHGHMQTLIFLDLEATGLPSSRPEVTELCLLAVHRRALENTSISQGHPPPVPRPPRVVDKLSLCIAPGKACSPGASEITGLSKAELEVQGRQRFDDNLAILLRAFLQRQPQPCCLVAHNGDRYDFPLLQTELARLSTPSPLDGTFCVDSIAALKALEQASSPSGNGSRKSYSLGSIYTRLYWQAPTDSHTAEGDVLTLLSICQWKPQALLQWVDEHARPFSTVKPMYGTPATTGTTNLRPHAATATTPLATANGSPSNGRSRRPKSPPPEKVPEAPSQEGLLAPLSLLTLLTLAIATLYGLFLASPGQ
The assay can be described thus: mTREX1 Biochemical Assay (fluorescence, dsDNA substrate degradation). The following applies: biochemical, read-out: mTREX1 IC50. The gist of the method:
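Reaction run 18 h at 25° C. with 60 nM TEX615/quencher-labelled dsDNA and 6 pM mouse TREX1 in Tris buffer (pH 7.4, 5 mM MgCl2, 1.0% DMSO), enzyme having sat 4 h with compound across 10 concentrations. EDTA quench; substrate degradation measured as fluorescence increase.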

SMILES strings stand for the structures.

By IC50 is commonly meant the concentration that gives 50% inhibition. Take `Cc1cnc(C(c2ccccc2C#N)C(C)c2nc(C(=O)Nc3cnoc3)c(O)c(=O)n2C)c(C)n1` (single isomer, unassigned) [Example 123 D1E1]: the IC50 in assay [1] was above 100 nM; in assay [2], 1 to 10 nM; in assay [4] it was 1 to 10 nM. For the same compound, the “hTREX1 vs hTREX2 selectivity” value in assay [3] is reported as “C (C = >50 fold selective for hTREX1)”.

On to `CC(c1nc(C(=O)Nc2cnoc2)c(O)c(=O)n1C)C(c1cnc(C(F)(F)F)cn1)c1ccccc1C#N` (single isomer, unassigned) [Example 118 D1E1], for which the IC50 lay in the range of 10 to 100 nM in assay [1], 1 to 10 nM in assay [2] and 1 to 10 nM in assay [4]. In addition, in assay [3], the “hTREX1 vs hTREX2 selectivity” value was “B (B = 25 to 50-fold selective for hTREX1)”.

In the case of `CC(c1nc(C(=O)Nc2cnoc2)c(O)c(=O)n1C)C(c1ccccc1Cl)n1nccc1C#N` (single isomer, unassigned) [Example 140 D1E1], the 50% inhibitory concentration (IC50) in assay [1] is 10 to 100 nM; in assay [2], below 1 nM; in assay [4] it was 1 to 10 nM. For the same compound, the “hTREX1 vs hTREX2 selectivity” value in assay [3] is “B (B = 25 to 50-fold selective for hTREX1)”.

For the compound `Cc1cnn(C)c1C(c1ccccc1C#N)C(C)c1nc(C(=O)Nc2cnoc2)c(O)c(=O)n1C` (single isomer, unassigned) [Example 84 D1E1], the figures for the IC50 in assay [1], in assay [2] and in assay [4] were 10 to 100 nM, below 1 nM and 1 to 10 nM, respectively. The “hTREX1 vs hTREX2 selectivity” value in assay [3] is reported as “B (B = 25 to 50-fold selective for hTREX1)”.

As for `Cc1cnc(C)c(C(c2cc(F)ccc2Cl)C(C)c2nc(C(=O)Nc3cnoc3)c(O)c(=O)n2C)n1` (single isomer, unassigned) [Example 121 D2E1], the IC50 in assay [1] was above 100 nM; in assay [2], above 10 nM; in assay [4], above 10 nM. The “hTREX1 vs hTREX2 selectivity” value in assay [3] was “B (B = 25 to 50-fold selective for hTREX1)”.

In the case of `Cc1cnc(C(c2cc(F)ccc2Cl)C(C)c2nc(C(=O)Nc3cnoc3)c(O)c(=O)n2C)cn1` (single isomer, unassigned) [Example 117 D1E2], the IC50 in assay [1] is below 10 nM; in assay [2] it was below 1 nM; in assay [4], 1 to 10 nM. In addition, the “hTREX1 vs hTREX2 selectivity” value in assay [3] is “A (A = <25 fold selective for hTREX1)”.

As to `CC(c1nc(C(=O)Nc2cnoc2)c(O)c(=O)n1C)C(c1cnn(C(F)(F)F)c1)c1ccccc1C#N` (single isomer, unassigned) [Example 151 D2E1], the half-maximal inhibitory concentration (IC50) in assay [1] is above 100 nM; in assay [2] it was 1 to 10 nM; in assay [4], above 10 nM. The “hTREX1 vs hTREX2 selectivity” value in assay [3] was “B (B = 25 to 50-fold selective for hTREX1)”.

For the compound `Cc1cc(C(c2cc(F)ccc2Cl)C(C)c2nc(C(=O)Nc3cnoc3)c(O)c(=O)n2C)n(C)n1` (single isomer, unassigned) [Example 113 D1E1], the figures for the 50% inhibitory concentration (IC50) in assay [1], in assay [2] and in assay [4] were 10 to 100 nM, above 10 nM and above 10 nM, respectively. For the same compound, the “hTREX1 vs hTREX2 selectivity” value in assay [3] is “C (C = >50 fold selective for hTREX1)”.

With `Cc1n[nH]c(C)c1C(c1ccccc1C#N)C(C)c1nc(C(=O)Nc2cnoc2)c(O)c(=O)n1C` (single isomer, unassigned) [Example 95 D1E2], the half-maximal inhibitory concentration (IC50) in assay [1] was above 100 nM; in assay [2], above 10 nM; in assay [4] it was above 10 nM. Further, the “hTREX1 vs hTREX2 selectivity” value in assay [3] was “A (A = <25 fold selective for hTREX1)”.

Take `CC(c1nc(C(=O)Nc2cnoc2)c(O)c(=O)n1C)C(c1ccccc1C#N)c1cn(C)nc1F` (single isomer, unassigned) [Example 91 D1E2]: the results for the IC50 in assay [1], in assay [2] and in assay [4] were above 100 nM, above 10 nM and above 10 nM, respectively. Further, the “hTREX1 vs hTREX2 selectivity” value in assay [3] is “A (A = <25 fold selective for hTREX1)”.

In the case of `CC(c1nc(C(=O)Nc2cnoc2)c(O)c(=O)n1C)C(c1ccccc1)c1cccnc1C#N` (single isomer, unassigned) [Example 155 D2E1], the IC50 in assay [1] is 10 to 100 nM; in assay [2], below 1 nM; in assay [4], above 10 nM. For the same compound, the “hTREX1 vs hTREX2 selectivity” value in assay [3] is on record as “C (C = >50 fold selective for hTREX1)”.

On to `CC(c1nc(C(=O)Nc2cnoc2)c(O)c(=O)n1C)C(c1cnn(CC(C)(C)O)c1)c1ccccc1Cl` (single isomer, unassigned) [Example 86 D1E1], for which the half-inhibitory concentration (IC50) was above 100 nM in assay [1], below 1 nM in assay [2] and 1 to 10 nM in assay [4]. In addition, the “hTREX1 vs hTREX2 selectivity” value in assay [3] is on record as “B (B = 25 to 50-fold selective for hTREX1)”.

On to `Cc1nn(C)c(C)c1C(c1cc(F)ccc1C#N)C(C)c1nc(C(=O)Nc2cnoc2)c(O)c(=O)n1C` (single isomer, unassigned) [Example 109 D1E1], for which the IC50 in assay [1] is 10 to 100 nM; in assay [2], below 1 nM; in assay [4], 1 to 10 nM. For the same compound, in assay [3], the “hTREX1 vs hTREX2 selectivity” value is listed as “B (B = 25 to 50-fold selective for hTREX1)”.

For the compound `CCn1cc(C(c2cc(F)ccc2Cl)C(C)c2nc(C(=O)Nc3cnoc3)c(O)c(=O)n2C)cn1` (single isomer, unassigned) [Example 60 D1E1], the values for the IC50 in assay [1], in assay [2] and in assay [4] were 10 to 100 nM, below 1 nM and 1 to 10 nM, respectively. In assay [3], the “hTREX1 vs hTREX2 selectivity” value is recorded as “B (B = 25 to 50-fold selective for hTREX1)”.

Turning to `CC(c1nc(C(=O)Nc2cnoc2)c(O)c(=O)n1C)C(c1cnn(C(C)(C)CC#N)c1)c1cc(F)ccc1Cl` (single isomer, unassigned) [Example 100 D1E1], the IC50 in assay [1] was above 100 nM; in assay [2], 1 to 10 nM; in assay [4], 1 to 10 nM. Moreover, the “hTREX1 vs hTREX2 selectivity” value in assay [3] is “A (A = <25 fold selective for hTREX1)”.

On to `Cc1cc(C(c2ccccc2C#N)C(C)c2nc(C(=O)Nc3cnoc3)c(O)c(=O)n2C)ccn1` (single isomer, unassigned) [Example 6 D1E1], for which the IC50 was below 10 nM in assay [1], below 1 nM in assay [2] and below 1 nM in assay [4]. For the same compound, the “hTREX1 vs hTREX2 selectivity” value in assay [3] is “C (C = >50 fold selective for hTREX1)”.

For `CC(c1nc(C(=O)Nc2cnoc2)c(O)c(=O)n1C)C(c1cnn(C)c1)c1ccc(Cl)cc1C#N` (single isomer, unassigned) [Example 27 D1E1], the IC50 in assay [1] was below 10 nM; in assay [2], below 1 nM; in assay [4], below 1 nM. Further, in assay [3], the “hTREX1 vs hTREX2 selectivity” value is “C (C = >50 fold selective for hTREX1)”.

As to `Cn1cc(C(c2ccccc2C#N)C(c2nc(C(=O)Nc3cnoc3)c(O)c(=O)n2C)C(F)(F)F)cn1` (single isomer, unassigned) [Example 40 D1E2], the IC50 is above 100 nM in assay [1], below 1 nM in assay [2] and 1 to 10 nM in assay [4]. The “hTREX1 vs hTREX2 selectivity” value in assay [3] is “B (B = 25 to 50-fold selective for hTREX1)”.

Take `Cc1cc(C(c2ccccc2C#N)C(C)c2nc(C(=O)Nc3cnoc3)c(O)c(=O)n2C)ccn1` (single isomer, unassigned) [Example 6 D1E2]: the values for the half-inhibitory concentration (IC50) in assay [1], in assay [2] and in assay [4] were above 100 nM, 1 to 10 nM and above 10 nM, respectively. For the same compound, the “hTREX1 vs hTREX2 selectivity” value in assay [3] is recorded as “B (B = 25 to 50-fold selective for hTREX1)”.

Consider `Cc1nn(C)c(C)c1C(c1cc(F)ccc1Cl)C(C)c1nc(C(=O)Nc2cnoc2)c(O)c(=O)n1C` (single isomer, unassigned) [Example 154 D1E1], for which the IC50 in assay [1] is above 100 nM; in assay [2] it was below 1 nM; in assay [4], 1 to 10 nM. In assay [3], the “hTREX1 vs hTREX2 selectivity” value is listed as “B (B = 25 to 50-fold selective for hTREX1)”.
